Laboratory results as given in patent US20240342292A1, “Compounds for the Degradation of EGFR Kinase” (BeiGene Switzerland GmbH, priority 2021, published 2024).

How the values were obtained:
L858R/T790M/C797S EGFR = target: T1, L858R/T790M/C797S EGFR (Homo sapiens, UniProt P00533, C797S/L858R/T790M); experiment: EGFR degradation HTRF assay in H1975-clone #25 (LTC) cells; format: cell-based; conditions: 16h treatment; for DC50: H1975 # 25-LTC (L858R/T790M/C797S), HTRF; for Dmax: NCI-H1975, H1975 # 25-LTC (L858R/T790M/C797S), maximum percentage of degradation
T1 construct: expressed in transfected cells; host or cells: H1975 clone #25 (lentiviral over-expression, endogenous EGFR knocked out by sgRNA)
T1 sequence (P00533 25-1210 T790M/C797S/L858R): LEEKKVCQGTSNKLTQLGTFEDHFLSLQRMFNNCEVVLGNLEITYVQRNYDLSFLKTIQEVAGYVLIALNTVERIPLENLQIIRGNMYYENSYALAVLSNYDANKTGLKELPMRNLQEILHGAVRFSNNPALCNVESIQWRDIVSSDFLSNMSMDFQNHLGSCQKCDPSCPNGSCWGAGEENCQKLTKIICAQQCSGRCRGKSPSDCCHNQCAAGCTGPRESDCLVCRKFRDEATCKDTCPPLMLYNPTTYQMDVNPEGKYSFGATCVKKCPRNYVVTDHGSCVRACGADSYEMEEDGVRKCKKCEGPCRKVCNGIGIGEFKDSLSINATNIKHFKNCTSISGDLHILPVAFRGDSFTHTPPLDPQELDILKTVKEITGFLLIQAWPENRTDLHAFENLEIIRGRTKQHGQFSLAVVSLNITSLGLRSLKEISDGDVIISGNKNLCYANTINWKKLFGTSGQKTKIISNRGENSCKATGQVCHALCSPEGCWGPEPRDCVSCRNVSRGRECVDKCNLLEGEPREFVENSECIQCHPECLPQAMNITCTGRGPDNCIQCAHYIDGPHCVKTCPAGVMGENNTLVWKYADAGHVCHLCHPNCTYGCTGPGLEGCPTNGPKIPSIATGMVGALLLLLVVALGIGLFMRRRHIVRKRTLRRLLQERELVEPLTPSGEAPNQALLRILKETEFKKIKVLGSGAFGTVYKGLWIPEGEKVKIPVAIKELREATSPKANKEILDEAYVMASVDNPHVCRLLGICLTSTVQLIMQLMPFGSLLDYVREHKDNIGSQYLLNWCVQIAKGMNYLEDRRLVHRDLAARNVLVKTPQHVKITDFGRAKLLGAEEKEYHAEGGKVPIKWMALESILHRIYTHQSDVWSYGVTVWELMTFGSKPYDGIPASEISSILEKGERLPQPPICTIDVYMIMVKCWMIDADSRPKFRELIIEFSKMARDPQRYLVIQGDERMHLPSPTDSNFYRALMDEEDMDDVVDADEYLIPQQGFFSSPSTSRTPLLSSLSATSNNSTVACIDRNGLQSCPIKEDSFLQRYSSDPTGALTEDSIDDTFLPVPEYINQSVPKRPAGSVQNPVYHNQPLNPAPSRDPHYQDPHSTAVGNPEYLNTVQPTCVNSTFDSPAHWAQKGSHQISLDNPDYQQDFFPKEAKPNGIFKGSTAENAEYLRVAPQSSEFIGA
Text: (§1) H1975-clone #28(Del19/T790M/C797S, or abbr: DTC), H1975-clone #23(Del19/C797S, or abbr: DC), H1975-clone #25(L858R/T790M/C797S, or abbr: LTC) and H1975-clone #8 (L858R/C797S, or abbr: LC). EGFR-Del19:T790M/C797S, EGFR-Del19/C797S, EGFR-L858R/T790M/C797S and EGFR-L858R/C797S were stably expressed in H1975 cell lines by lentivirus-mediated over-expression, respectively. The EGFR over-expressed cells then underwent knockout, in which the EGFR targeting sgRNA was designed to only target the endogenous EGFR copies and preserve the exogenous EGFR copies. Followed by the knockout, the edited H1975 cells were seeded in 96 well plates at the concentration of […], cultured for about 2 weeks to allow single clones formation. The formed clones were screened by DNA sequencing and whole exon sequencing analysis for the desired edition. H1975-clone #28, H1975-clone #23, H1975-clone #25 and H1975-clone #8 were finally confirmed as homozygous Del19/T790M/C797S EGFR, Dell9/C797S EGFR, L858R/T790M/C797S EGFR and L858R/C797S EGFR clones, respectively.
(§2) H1975-#25, H1975-#28, H1975-#23 and H1975-#8 cells are treated with compounds diluted in 0.2% DMSO cell culture medium on day 2, incubate for 16h, 37° C., 5% CO2. the final concentration of compounds in all assay is start with 10 uM, 5-fold dilution, total 8 doses were included.
(§3) After 16h treatment, add HTRF lysis buffer to each well; seal the plate and incubate 1 hour at room temperature on a plate shaker; Once the cells are lysed, 16 μL of cell lysate are transferred to a PE 384-well HTRF detection plate; 4 μL of pre-mixed HTRF antibodies are added to each well; Cover the plate with a plate sealer, spin 1000 rpm for 1 min, Incubate overnight at room temperature; Read on BMG PheraStar with HTRF protocol (337 nm-665 nm-620 nm).
(§4) The IC50 (DC50) value of a compound can be obtained by fitting the following equation
(§5) Y=Bottom+(TOP−Bottom)/(1+((IC50/X)^hillslope))
(§6) Wherein, X and Y are known values, and IC50, Hillslope, Top and Bottom are the parameters obtained by fitting with software. Y is the inhibition percentage (calculated from the equation), X is the concentration of the compound: IC50 is the concentration of the compound when the 50% inhibition is reached. The smaller the IC50 value is, the stronger the inhibitory ability of the compound is. Vice versa, the higher the IC50 value is, the weaker the ability the inhibitory ability of the compound is: Hillslope represents the slope of the fitted curve, generally around 1*; Bottom represents the minimum value of the curve obtained by data fitting, which is generally 0%±20%; Top represents the maximum value of the curve obtained by data fitting, which is generally 100%±20%. The experimental data were fitted by calculating and analyzing with Dotmatics data analysis software.

Del19/T790M/C797S EGFR = experiment: EGFR degradation HTRF assay in H1975-clone #28 (DTC) cells; format: cell-based; conditions: H1975 # 28 DTC (Del19/T790M/C797S), 16h treatment; for DC50: HTRF; for Dmax (%): maximum percentage of degradation
Text: as §1, §2, §3, §4, §5, §6

| SMILES | DC50 (L858R/T790M/C797S EGFR) | Dmax (L858R/T790M/C797S EGFR) | DC50 (Del19/T790M/C797S EGFR) | Dmax (%) (Del19/T790M/C797S EGFR) |
| --- | --- | --- | --- | --- |
| Cc1cc2cc(n1)-c1cnn(C)c1OCCC[C@@H](C)CN1/C(=N/C2=O)Nc2ccc(C(=O)N3CCC(C4CN(CCc5cc(F)c([C@H]6CCC(=O)NC6=O)c(F)c5)C4)CC3)cc21 [Example 312, (R)-3-(2,6-difluoro-4-(2-(3-(1-((R,E)-1^1,2^6,7-trimethyl-3-oxo-5^2,5^3-dihydro-1^1H,5^1H-11-oxa-4-aza-5(2,1)-benzo[d]imidazola-2(2,4)-pyridina-1(4,5)-pyrazolacycloundecaphane-5^6-carbonyl)piperidin-4-yl)azetidin-1-yl)ethyl)phenyl)piperidine-2,6-dione] | 0.906 nM | 85.8% | 0.689 nM | 47.95% |
| Cc1cc2cc(n1)-c1cnn(C)c1OCCC[C@@H](C)CN1/C(=N/C2=O)Nc2ccc(N3CC[C@@H](N4CCN(c5cc(F)c([C@H]6CCC(=O)NC6=O)c(F)c5)CC4)CC3=O)cc21 [Example 448, (R)-3-(2,6-difluoro-4-(4-((R)-2-oxo-1-((R,E)-1^1,2^6,7-trimethyl-3-oxo-5^2,5^3-dihydro-1^1H,5^1H-11-oxa-4-aza-5(2,1)-benzo[d]imidazola-2(2,4)-pyridina-1(4,5)-pyrazolacycloundecaphane-5^6-yl)piperidin-4-yl)piperazin-1-yl)phenyl)piperidine-2,6-dione] | 0.237 nM | 92.3% | 0.584 nM | 88.36% |
| Cc1cc2cc(n1)-c1cnn(C)c1OCCC[C@@H](C)CN1/C(=N/C2=O)Nc2ccc(C(=O)N(C)C3CCN(C4CCN(c5cc(F)c([C@H]6CCC(=O)NC6=O)c(F)c5)CC4)CC3)cc21 [Example 289, (R,E)-N-(1′-(4-((R)-2,6-dioxopiperidin-3-yl)-3,5-difluorophenyl)-[1,4′-bipiperidin]-4-yl)-N,1^1,2^6,7-tetramethyl-3-oxo-5^2,5^3-dihydro-1^1H,5^1H-11-oxa-4-aza-5(2,1)-benzo[d]imidazola-2(2,4)-pyridina-1(4,5)-pyrazolacycloundecaphane-5^6-carboxamide] | 0.454 nM | 93.8% | 0.624 nM | 91.07% |
| Cc1cc2cc(n1)-c1cnn(C)c1OCCC[C@@H](C)CN1/C(=N/C2=O)Nc2ccc(C(=O)N3CC[C@H](NCCc4cc(F)c([C@H]5CCC(=O)NC5=O)c(F)c4)C3)cc21 [Example 298, (R)-3-(2,6-difluoro-4-(2-(((S)-1-((R,E)-1^1,2^6,7-trimethyl-3-oxo-5^2,5^3-dihydro-1^1H,5^1H-11-oxa-4-aza-5(2,1)-benzo[d]imidazola-2(2,4)-pyridina-1(4,5)-pyrazolacycloundecaphane-5^6-carbonyl)pyrrolidin-3-yl)amino)ethyl)phenyl)piperidine-2,6-dione] | 1.14 nM | 90.1% | 1.2 nM | 66.58% |
| Cc1cc2cc(n1)-c1cnn(C)c1OCCC[C@@H](C)CN1/C(=N/C2=O)Nc2ccc(CN3CCN(CC4CN(c5cc(F)c([C@H]6CCC(=O)NC6=O)c(F)c5)C4)CC3)c(C)c21 [Example 148, (R)-3-(2,6-difluoro-4-(3-((4-(((R,E)-1^1,2^6,5^7,7-tetramethyl-3-oxo-5^2,5^3-dihydro-1^1H,5^1H-11-oxa-4-aza-5(2,1)-benzo[d]imidazola-2(2,4)-pyridina-1(4,5)-pyrazolacycloundecaphane-5^6-yl)methyl)piperazin-1-yl)methyl)azetidin-1-yl)phenyl)piperidine-2,6-dione] | 1.89 nM | 78.7% | 3.09 nM | 70.93% |
| Cc1cc2cc(n1)-c1cnn(C)c1OCCC[C@@H](C)CN1/C(=N/C2=O)Nc2cc(F)c(C3CCN(C(=O)[C@@H]4CCN(c5cc(F)c(C6CCC(=O)NC6=O)c(F)c5)C4)CC3)cc21 (stereo partly drawn) [Example 329, (R)-3-(2,6-difluoro-4-((R)-3-(4-((R,E)-5^5-fluoro-1^1,2^6,7-trimethyl-3-oxo-5^2,5^3-dihydro-1^1H,5^1H-11-oxa-4-aza-5(2,1)-benzo[d]imidazola-2(2,4)-pyridina-1(4,5)-pyrazolacycloundecaphane-5^6-yl)piperidine-1-carbonyl)pyrrolidin-1-yl)phenyl)piperidine-2,6-dione] | 2.97 nM | 78.7% | 2.19 nM | 68.61% |
| Cc1cc2cc(n1)-c1cnn(C)c1OCCC[C@@H](C)CN1/C(=N/C2=O)Nc2ccc(N3CCN(C4CCN(c5cc(F)c([C@H]6CCC(=O)NC6=O)c(F)c5)CC4)CC3)cc21 [Example 324, (R)-3-(2,6-difluoro-4-(4-(4-((R,E)-1^1,26,7-trimethyl-3-oxo-5^2,5^3-dihydro-1^1H,5^1H-11-oxa-4-aza-5(2, 1)-benzo[d]imidazola-2(2,4)-pyridina-1(4,5)-pyrazolacycloundecaphane-5^6-yl)piperazin-1-yl)piperidin-1-yl)phenyl)piperidine-2,6-dione] | 1.02 nM | 91.1% | 0.859 nM | 78.7% |
| COC[C@@H]1CN(C2CCN(c3cc(F)c([C@H]4CCC(=O)NC4=O)c(F)c3)CC2)CCN1c1ccc2c(c1)N1C[C@H](C)CCCOc3c(cnn3C)-c3cc(cc(C)n3)C(=O)/N=C/1N2 [Example 386, (R)-3-(2,6-difluoro-4-(4-((S)-3-(methoxymethyl)-4-((R,E)-1^1,2^6,7-trimethyl-3-oxo-5^2,5^3-dihydro-1^1H,5^1H-11-oxa-4-aza-5(2,1)-benzo[d]imidazola-2(2,4)-pyridina-1(4,5)-pyrazolacycloundecaphane-5-yl)piperazin-1-yl)piperidin-1-yl)phenyl)piperidine-2,6-dione] | 2.7 nM | 86.6% | 2.01 nM | 72.30% |
| Cc1cc2cc(n1)-c1cnn(C)c1OCCC[C@@H](C)CN1/C(=N/C2=O)Nc2ccc(N3CCN(CC4CCN(c5cc(F)c([C@H]6CCC(=O)NC6=O)c(F)c5)CC4)CC3)cc21 [Example 322, (R)-3-(2,6-difluoro-4-(4-((4-((R,E)-1^1,2^6,7-trimethyl-3-oxo-5^2,5^3-dihydro-1^1H,5^1H-11-oxa-4-aza-5(2, 1)-benzo[d]imidazola-2(2,4)-pyridina-1(4,5)-pyrazolacycloundecaphane-5^6-yl)piperazin-1-yl)methyl)piperidin-1-yl)phenyl)piperidine-2,6-dione] | 1.21 nM | 86.8% | 0.934 nM | 74.99% |
| CCN(C(=O)c1ccc2c(c1)N1C[C@H](C)CCCOc3c(cnn3C)-c3cc(cc(C)n3)C(=O)/N=C/1N2)C1CCN(CCc2cc(F)c([C@H]3CCC(=O)NC3=O)c(F)c2)CC1 [Example 241, (R,E)-N-(1-(4-((R)-2,6-dioxopiperidin-3-yl)-3,5-difluorophenethyl)piperidin-4-yl)-N-ethyl-1^1,2^6,7-trimethyl-3-oxo-5^2,5^3-dihydro-1^1H,5^1H-li-oxa-4-aza-5(2,1)-benzo[d]imidazola-2(2,4)-pyridina-1(4,5)-pyrazolacycloundecaphane-5^4-carboxamide] | 0.403 nM | 87.7% | 0.328 nM | 76.68% |
| Cc1cc2cc(n1)-c1cnn(C)c1OCC[C@H]1C[C@@H]1CN1/C(=N/C2=O)Nc2ccc(N3CCN(C[C@H]4C[C@H](Nc5cc(F)c([C@H]6CCC(=O)NC6=O)c(F)c5)C4)CC3)cc21 [Example 457, (R)-3-(4-(((1S,3R)-3-((4-((7^1S,7^2R,E)-1^1,2^6-dimethyl-3-oxo-5^2,5^3-dihydro-1^1H,5^1H-10-oxa-4-aza-5(2,1)-benzo[d]imidazola-2(2,4)-pyridina-1(4,5)-pyrazola-7(1,2)-cyclopropanacyclodecaphane-5^6-yl)piperazin-1-yl)methyl)cyclobutyl)amino)-2,6-difluorophenyl)piperidine-2,6-dione] | 0.632 nM | 92.8% | 0.709 nM | 91.81% |
